Laboratory results as given in patent US9932325B2 (Denali Therapeutics Inc., priority 2015, dated 2018).
Several values for one entry are separate records, joined by “and”; a condition that tells them apart may be missing. Identical values can stand only once.

target: LRRK2 G2019S enzyme (Homo sapiens (Human), UniProt Q5S007, G2019S); test: LRRK2 G2019S TR-FRET biochemical assay (LRRKtide substrate); conditions: 134 μM ATP
Procedure: Detection Reaction Conditions • 1× TR-FRET dilution buffer • 10 mM EDTA • 2 nM antibody • 23° C. reaction temperature • 10 μL total reaction volume
Compounds were prepared by initially diluting to 1 mM with DMSO. 35 μL of reference compound solution, 35 μL of test compound solution, and 35 μL HPE were successively added to the source plate (384-well assay plate, Labcyte). The plates were centrifuged at 2500 rpm for 1 minute and sealed in foil. […] The assay plate was centrifuged at 2500 rpm for 1 minute, and sealed with foil.
To perform the enzyme reaction, 5 μL of LRRKtide substrate and kinase mixture in assay buffer was added to all wells of the assay plate. The plate was centrifuged to concentrate the mixture at the bottom of the wells. The assay plate was incubated at 23° C. for 20 minutes. Following incubation, 5 μL of 2× ATP in assay buffer was added to each well, and plates were centrifuged to concentrate the mixture at the bottom of the wells. The plate was incubated at 23° C. for 60 minutes.
To perform the detection of the reaction, EDTA completely mixed in TR-FRET dilution buffer was added to antibody reagent. 10 μL of detection reagent was added to all wells of each well of the assay plate and the plate was centrifuged to concentrate the mixture at the bottom of the wells. The plate was then incubated at 23° C. for 60 minutes.

Chain of LRRK2 G2019S enzyme (Q5S007 whole entry G2019S): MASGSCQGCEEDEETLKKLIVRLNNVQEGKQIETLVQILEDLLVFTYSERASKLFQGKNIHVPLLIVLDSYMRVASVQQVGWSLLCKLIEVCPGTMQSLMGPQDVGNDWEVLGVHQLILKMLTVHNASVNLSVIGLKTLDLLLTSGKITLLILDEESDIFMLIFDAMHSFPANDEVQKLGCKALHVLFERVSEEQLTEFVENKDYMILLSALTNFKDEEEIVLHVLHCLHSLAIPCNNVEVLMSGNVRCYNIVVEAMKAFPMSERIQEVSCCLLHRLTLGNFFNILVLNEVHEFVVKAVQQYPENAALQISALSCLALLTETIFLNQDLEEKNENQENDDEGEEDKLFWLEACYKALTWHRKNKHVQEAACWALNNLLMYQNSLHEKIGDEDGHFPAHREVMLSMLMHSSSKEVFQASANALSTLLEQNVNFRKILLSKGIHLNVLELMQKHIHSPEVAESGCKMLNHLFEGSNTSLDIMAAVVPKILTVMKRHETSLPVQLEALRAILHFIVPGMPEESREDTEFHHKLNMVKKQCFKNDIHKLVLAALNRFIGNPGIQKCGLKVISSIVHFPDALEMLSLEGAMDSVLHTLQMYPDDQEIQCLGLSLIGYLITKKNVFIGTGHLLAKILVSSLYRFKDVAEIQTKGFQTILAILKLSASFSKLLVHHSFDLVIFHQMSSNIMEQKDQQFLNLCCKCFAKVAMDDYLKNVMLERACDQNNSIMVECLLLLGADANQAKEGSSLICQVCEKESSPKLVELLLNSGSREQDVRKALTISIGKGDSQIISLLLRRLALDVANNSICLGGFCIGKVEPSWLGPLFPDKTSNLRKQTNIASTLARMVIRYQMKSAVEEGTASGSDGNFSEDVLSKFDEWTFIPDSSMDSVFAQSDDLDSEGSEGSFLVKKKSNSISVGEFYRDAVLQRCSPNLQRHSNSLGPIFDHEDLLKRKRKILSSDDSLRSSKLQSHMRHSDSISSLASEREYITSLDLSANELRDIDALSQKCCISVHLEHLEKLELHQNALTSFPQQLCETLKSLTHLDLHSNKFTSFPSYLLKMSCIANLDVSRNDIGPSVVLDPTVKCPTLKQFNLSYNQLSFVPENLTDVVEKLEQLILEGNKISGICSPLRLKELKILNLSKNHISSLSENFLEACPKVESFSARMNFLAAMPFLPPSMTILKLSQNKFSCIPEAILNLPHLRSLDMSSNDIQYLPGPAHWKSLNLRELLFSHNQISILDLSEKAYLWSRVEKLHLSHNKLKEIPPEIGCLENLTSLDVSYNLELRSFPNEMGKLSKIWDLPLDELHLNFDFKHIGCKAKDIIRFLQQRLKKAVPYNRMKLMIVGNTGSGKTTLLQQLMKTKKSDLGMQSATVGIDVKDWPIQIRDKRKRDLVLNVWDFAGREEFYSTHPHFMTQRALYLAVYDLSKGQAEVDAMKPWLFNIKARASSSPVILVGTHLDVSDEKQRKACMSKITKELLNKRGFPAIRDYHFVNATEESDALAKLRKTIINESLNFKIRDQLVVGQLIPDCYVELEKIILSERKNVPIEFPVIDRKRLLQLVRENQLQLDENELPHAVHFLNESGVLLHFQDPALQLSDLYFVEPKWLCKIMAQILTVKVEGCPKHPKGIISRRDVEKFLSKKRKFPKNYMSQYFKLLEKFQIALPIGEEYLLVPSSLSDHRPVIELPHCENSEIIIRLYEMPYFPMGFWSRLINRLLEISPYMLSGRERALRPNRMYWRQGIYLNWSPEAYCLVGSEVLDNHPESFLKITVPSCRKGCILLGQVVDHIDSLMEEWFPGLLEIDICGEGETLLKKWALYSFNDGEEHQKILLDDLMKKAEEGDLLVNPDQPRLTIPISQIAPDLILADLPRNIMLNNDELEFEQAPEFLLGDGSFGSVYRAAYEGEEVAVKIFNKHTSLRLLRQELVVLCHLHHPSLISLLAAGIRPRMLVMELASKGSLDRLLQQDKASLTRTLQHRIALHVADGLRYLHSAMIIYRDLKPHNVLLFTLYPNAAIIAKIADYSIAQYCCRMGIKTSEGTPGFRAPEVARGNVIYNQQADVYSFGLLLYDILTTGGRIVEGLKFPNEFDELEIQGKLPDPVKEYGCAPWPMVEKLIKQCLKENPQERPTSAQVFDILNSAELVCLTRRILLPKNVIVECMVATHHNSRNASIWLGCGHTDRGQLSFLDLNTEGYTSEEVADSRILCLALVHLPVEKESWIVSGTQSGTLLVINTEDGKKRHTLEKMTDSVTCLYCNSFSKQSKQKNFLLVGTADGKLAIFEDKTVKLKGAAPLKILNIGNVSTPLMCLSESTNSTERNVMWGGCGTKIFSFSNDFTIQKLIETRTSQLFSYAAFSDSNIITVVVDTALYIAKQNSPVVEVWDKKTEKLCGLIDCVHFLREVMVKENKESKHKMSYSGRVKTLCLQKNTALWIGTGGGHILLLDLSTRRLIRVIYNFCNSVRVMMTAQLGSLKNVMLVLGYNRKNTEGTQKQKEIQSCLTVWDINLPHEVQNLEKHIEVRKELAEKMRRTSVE

Which IC50 does the source give for `CNc1nc(Nc2cnn(C3CN(C4COC4)CCC3(F)F)c2Cl)ncc1C(F)(F)F` (single isomer, unassigned) [Compound 28] here?
The IC50 was less than 0.03 µM.

Which IC50 does the source give for `CNc1nc(Nc2cn(C3(C)CCOC3=O)nc2C2CC2)ncc1C(F)(F)F` (single isomer, unassigned) [Compound 113] here?
Its IC50 is less than 0.03 µM.

For `CNc1nc(Nc2cnn3c2OCC2(CC2)C3)ncc1C(F)(F)F` [Compound 17], which IC50 is on record?
The IC50 was less than 0.03 µM.

With `CCNc1nc(Nc2cc(C(C)(C)n3nccn3)nn2C2CC2)ncc1Br` [Compound 126] as the compound, how does the IC50 read?
The IC50 was less than 0.03 µM.

For `CCNc1nc(Nc2cnn([C@H]3C[C@@H](C#N)C3)c2C)ncc1C(F)(F)F` [Compound 27], which IC50 is on record?
Its IC50 is < 0.03 µM and 0.00341 µM.

How did the IC50 turn out when `CNc1nc(Nc2cn(C3C[C@@H]4[C@H](C3)C4(F)F)nc2C)ncc1C(F)(F)F` (stereo partly drawn) [Compound 12] was run?
The IC50 was less than 0.03 µM.

For `COc1nc(Nc2cn(C3(C)CCOC3=O)nc2C)ncc1Br` (single isomer, unassigned) [Compound 90], which IC50 is on record?
Its IC50 is less than 0.03 µM.

`CCNc1nc(Nc2cnn(C3CCC3)c2C#N)ncc1Br` [Compound 58] was tested. Which IC50 did it give?
The IC50 was less than 0.03 µM.

With `CNc1nc(Nc2cnn(C3CC4(COC4)C3)c2Cl)ncc1C(F)(F)F` [Compound 13] as the compound, how does the IC50 read?
Its IC50 is less than 0.03 µM.

How did the IC50 turn out when `CCNc1nc(Nc2cc(C(C)(C)n3nccn3)nn2C2CCC2)ncc1C(F)(F)F` [Compound 127] was run?
Its IC50 is less than 0.03 µM.

For `CCNc1nc(Nc2cc(C3(C)CCn4ccnc43)nn2C2CC2)ncc1C(F)(F)F` (stereo not drawn) [Compound 166], which IC50 is on record?
Its IC50 is greater than 0.06 µM.

`N#C[C@@H]1CC1n1cc(Nc2ncc(C(F)(F)F)c(NCC(F)F)n2)c(C2CC2)n1` (single isomer, unassigned) [Compound 211] was tested. Which IC50 did it give?
The IC50 was less than 0.03 µM.

For `CCNc1nc(Nc2cc([C@H]3C[C@H]3C#N)nn2C2CC2)ncc1C(F)(F)F` [Compound 164], which IC50 is on record?
The IC50 was less than 0.03 µM.

For `CCNc1nc(Nc2cc(N3CCCC3=O)nn2C2CC2)ncc1C(F)(F)F` [Compound 153, 1-(1-cyclopropyl-5-((4-(ethylamino)-5-(trifluoromethyl)pyrimidin-2-yl)amino)-1H-pyrazol-3-yl)pyrrolidin-2-one], which IC50 is on record?
The IC50 was less than 0.03 µM.

Which IC50 does the source give for `CNc1nc(Nc2cnn3c2CC2(CC2)C3)ncc1C(F)(F)F` [Compound 8] here?
The IC50 was less than 0.03 µM.

For `CCNc1nc(Nc2cc([C@]34C[C@H]3COC4=O)nn2C2CC2)ncc1C(F)(F)F` [Compound 165], which IC50 is on record?
Its IC50 is less than 0.03 µM.

How did the IC50 turn out when `CNc1nc(Nc2cnn(C3C[C@@H]4[C@H](C3)C4(F)F)c2Cl)ncc1C(F)(F)F` (stereo partly drawn) [Compound 9] was run?
Its IC50 is less than 0.03 µM.

`CCNc1nc(Nc2cnn(C3CCCN(CC(F)F)C3)c2C)ncc1C(F)(F)F` (single isomer, unassigned) [Compound 116] was tested. Which IC50 did it give?
The IC50 was less than 0.03 µM.

Which IC50 does the source give for `CNc1nc(Nc2c[nH]nc2C)ncc1C(F)(F)F` [Compound 109] here?
Its IC50 is less than 0.03 µM.

`CCNc1nc(Nc2cn(C3C[C@H]3C#N)nc2C2CC2)ncc1Br` (single isomer, unassigned) [Compound 215] was tested. Which IC50 did it give?
Its IC50 is less than 0.03 µM.

For `CCNc1nc(Nc2cc(C#N)nn2C2CC2)ncc1C(F)(F)F` [Compound 133], which IC50 is on record?
The IC50 was greater than 0.06 µM.

With `[2H]C([2H])([2H])n1nc(C(C)(C)n2cccn2)cc1Nc1ncc(C(F)(F)F)c(NCC)n1` [Compound 70] as the compound, how does the IC50 read?
Its IC50 is less than 0.03 µM.

Which IC50 does the source give for `CCNc1nc(Nc2cnn3c2CC2(COC2)C3)ncc1C(F)(F)F` [Compound 20] here?
Its IC50 is less than 0.03 µM.

How did the IC50 turn out when `CNc1nc(Nc2cnn(C3CCCC3(C)O)c2C)ncc1C(F)(F)F` (single isomer, unassigned) [Compound 30] was run?
The IC50 was 0.03 to 0.06 µM.

Which IC50 does the source give for `CCNc1nc(Nc2cn(C(C)(C)c3ccn(C)n3)nc2C)ncc1C(F)(F)F` [Compound 18] here?
The IC50 was less than 0.03 µM.

With `CCNc1nc(Nc2cc([C@H]3C[C@@H]3C#N)nn2C2CC2)ncc1C(F)(F)F` [Compound 152] as the compound, how does the IC50 read?
Its IC50 is less than 0.03 µM.

How did the IC50 turn out when `CCNc1nc(Nc2ccnn2[C@H]2C[C@H](C#N)C2)ncc1C(F)(F)F` [Compound 181, (1R,3R)-3-(5-((4-(ethylamino)-5-(trifluoromethyl)pyrimidin-2-yl)amino)-1H-pyrazol-1-yl)cyclobutanecarbonitrile] was run?
The IC50 was less than 0.03 µM.

`CNc1nc(Nc2cn(C3C[C@H]3C#N)nc2C2CC2)ncc1C(F)(F)F` (single isomer, unassigned) [Compound 209] was tested. Which IC50 did it give?
Its IC50 is less than 0.03 µM.

For `CCNc1nc(Nc2cnn(C3CCC3)c2C#N)ncc1C(F)(F)F` [Compound 32], which IC50 is on record?
The IC50 was less than 0.03 µM.

For `Cc1nn(C(C)(C)C#N)cc1Nc1ncc(C(F)(F)F)c(NC2CC2)n1` [Compound 38], which IC50 is on record?
Its IC50 is less than 0.03 µM.

With `CCNc1nc(Nc2cnn3c2CC(n2nccn2)C3)ncc1C(F)(F)F` (single isomer, unassigned) [Compound 54B] as the compound, how does the IC50 read?
Its IC50 is less than 0.03 µM.

`CNc1nc(Nc2cnn(CC34CC(C#N)(C3)C4)c2C)ncc1C(F)(F)F` [Compound 7] was tested. Which IC50 did it give?
Its IC50 is less than 0.03 µM.

For `CNc1nc(Nc2cn(C(C)(C)c3ncn(C)n3)nc2C)ncc1C(F)(F)F` [Compound 14], which IC50 is on record?
The IC50 was less than 0.03 µM.

Which IC50 does the source give for `CCNc1nc(Nc2cn(S(C)(=O)=O)nc2C2CC2)ncc1Br` [Compound 111] here?
Its IC50 is less than 0.03 µM.

`CCNc1nc(Nc2cn(C3(C)CCOC3=O)nc2C)ncc1C(F)(F)F` (single isomer, unassigned) [Compound 100] was tested. Which IC50 did it give?
Its IC50 is less than 0.03 µM.

How did the IC50 turn out when `CCNc1nc(Nc2cnn([C@H]3C[C@@H](n4nccn4)C3)c2C2CC2)ncc1C(F)(F)F` [Compound 101] was run?
Its IC50 is less than 0.03 µM.

Which IC50 does the source give for `CCNc1nc(Nc2cn(C3C[C@@H]3C#N)nc2C2CC2)ncc1C(F)(F)F` (stereo partly drawn) [Compound 107] here?
The IC50 was less than 0.03 µM.

With `CCNc1nc(Nc2cc(N3CCCC3=O)nn2C2CC2)ncc1Br` [Compound 158] as the compound, how does the IC50 read?
The IC50 was less than 0.03 µM.

With `[2H]C([2H])([2H])n1nc(C(C)(C)n2cccn2)cc1Nc1ncc(C(F)(F)F)c(NC2CC2)n1` [Compound 71] as the compound, how does the IC50 read?
Its IC50 is less than 0.03 µM.

For `CNc1nc(Nc2cn(C3(C)CCOC3=O)nc2C)ncc1C(F)(F)F` (single isomer, unassigned) [Compound 119], which IC50 is on record?
Its IC50 is less than 0.03 µM.

With `[2H]C([2H])([2H])c1nn(C(C#N)(C([2H])([2H])[2H])C([2H])([2H])[2H])cc1Nc1ncc(C(F)(F)F)c(NC)n1` [Compound 45] as the compound, how does the IC50 read?
Its IC50 is less than 0.03 µM.

How did the IC50 turn out when `CCNc1nc(Nc2cc([C@H]3C[C@H]3C(=O)OCC)nn2C2CC2)ncc1C(F)(F)F` [Compound 169] was run?
The IC50 was less than 0.03 µM.

`CCNc1nc(Nc2ccnn2[C@H]2C[C@H](F)C2)ncc1C(F)(F)F` [Compound 190] was tested. Which IC50 did it give?
The IC50 was less than 0.03 µM.

Which IC50 does the source give for `CCNc1nc(Nc2cc(C(C)=O)nn2C2CC2)ncc1C(F)(F)F` [Compound 135] here?
The IC50 was greater than 0.06 µM.

How did the IC50 turn out when `CCNc1nc(Nc2cnn(-c3cnccn3)c2C2CC2)ncc1C(F)(F)F` [Compound 105, N2-(5-cyclopropyl-1-pyrazin-2-yl-pyrazol-4-yl)-N4-ethyl-5-(trifluoromethyl)pyrimidine-2,4-diamine] was run?
The IC50 was less than 0.03 µM.

`CNc1nc(Nc2cnn(C3CCCC3(C)O)c2C)ncc1C(F)(F)F` (single isomer, unassigned) [Compound 31] was tested. Which IC50 did it give?
Its IC50 is 0.03 to 0.06 µM.

Which IC50 does the source give for `CCNc1nc(Nc2cn(C3(C)CCOC3=O)nc2Cl)ncc1C(F)(F)F` (single isomer, unassigned) [Compound 117] here?
Its IC50 is less than 0.03 µM.

For `CCNc1nc(Nc2cn(C3CC3)nc2[C@H]2C[C@@H](n3nccn3)C2)ncc1C(F)(F)F` [Compound 197], which IC50 is on record?
Its IC50 is less than 0.03 µM.

`COc1nc(Nc2cn(Cc3cc[nH]n3)nc2C2CC2)ncc1Br` [Compound 95] was tested. Which IC50 did it give?
Its IC50 is less than 0.03 µM.

Which IC50 does the source give for `CCNc1nc(Nc2cnn3c2CC(n2nccn2)C3)ncc1C(F)(F)F` (single isomer, unassigned) [Compound 54A] here?
Its IC50 is less than 0.03 µM.

How did the IC50 turn out when `CCNc1nc(Nc2cc(C3(C)CCn4ncnc43)nn2C2CC2)ncc1C(F)(F)F` (stereo not drawn) [Compound 171] was run?
The IC50 was greater than 0.06 µM.
